Results reported in US9193989B2, “PRPK-TPRKB modulators and uses thereof” (TAIHO PHARMACEUTICAL CO., LTD., priority 2010, dated 2015).

Key:
PRPK/TPRKB = target: T1, PRPK/TPRKB (Homo sapiens, UniProt Q96S44+Q9Y3C4); assay: Competition for PRPK/TPRKB binding to the pomalidomide-based affinity reagent (affigel pulldown); settings: FIG. 4; excess free competitor
T1 construct: host or cells: HEK-293FT
Description: Cell lysates were prepared from 2×10^8 Jeko-1, Jurkat, or HS-Sultan cells or 5×10^7 HeLa S3 cells per pulldown sample by lysis in 2 mL Buffer B (50 mM HEPES pH 7.5, 5% glycerol, 1.5 mM MgCl2, 150 mM NaCl, 1 mM Na3VO4, 25 mM NaF, 0.4% Nonidet P-40, 1 mM DTT, and 1 Complete Mini EDTA-free protease inhibitor tablet per 10-25 mL Buffer B). Lysates were incubated on ice for 30 mM, followed by 2× freeze-thaw using liquid N2 and 37° C. water bath in polypropylene tubes. Samples were centrifuged at 1800 rpm for 5 mM at 4° C. Supernatants were ultracentrifuged at 55,000 rpm for 1 hr at 4° C. Supernatants were collected and pre-cleared with 10 μL control affigel reagent (affigel-ethanolamine or affigel-PEG linker) by incubation on a rotator for 30 mM at 4° C. Pre-cleared lysates were transferred to Mobicol 1 mL columns with 90 μm pore size frit on ice and centrifuged at 0.1 rcf for 10 sec to separate affigel beads from lysates. Incubations with pre-cleared lysates and excess pomalidomide were performed at a 20-fold excess competitor concentration (500 μM final concentration) on a rotator for 30 mM at 4° C. Subsequently, 10 μL control or pomalidomide-based affigel reagents were added to each sample and pulldowns were performed for 1 hr at 4° C. Lysates and affigel reagents were transferred to Mobicol 1 mL columns with 90 μm pore size frit and affigel beads were washed 3× with 800 μL Buffer B and 2× with 800 μL Buffer A (Buffer B not including 0.4% Nonidet P-40). Columns were centrifuged for 30 sec at 0.1 rcf to remove any remaining wash buffer and then closed with lower plug. Columns were placed in 1.5 mL Low-binding Eppendorf tubes and heated at 50° C. for 30 mM in 40 uL 2×SDS sample buffer with 10 mM DTT to elute bound proteins from affigel reagents. Columns were then opened and eluents were collected in the low-binding Eppendorf tubes by 15 sec centrifugation at 1600 rpm. Samples were applied and resolved on 4-12% SDS-PAGE gels followed by silver staining (SilverQuest Kit, Invitrogen, Carlsbad, Calif.). Bands which were competed by excess actimid competitor but not by DMSO were excised and identified by LC/MS/MS analysis at the Beth Israel Deaconess Medical Center Mass Spectrometry Core Facility (Boston, Mass.).
C-term Myc-DDK tagged PRPK and C-term Myc-DDK tagged TPRKB proteins were transiently overexpressed from cDNAs (obtained from Origene, Rockville, Md.) in HEK-293FT cells using FuGENE-6 transfection reagent according to the manufacturer's protocol (Roche, Indianapolis, Ind.). One day prior to transfection, 2.5×10^6 HEK-293FT cells were plated per p100 dish. Cells were lysed 48 hr post-transfection in 1-2 mL Buffer B per p100 dish per sample. […] The amount of PRPK and TPRKB captured by each affinity reagent was determined by silver stain and anti-DDK (anti-DDK monoclonal antibody, Origene) Western blot. Competition experiments were also performed using a variety of compounds and derivatives (pomalidomide, lenalidomide, thalidomide, CMPD 31, CMPD 30, CMPD 29).

[1] = tested on: natural killer cells in PBMCs; assay: Natural killer cell assay (DELFIA NK lytic activity); assay type: cell-based, human; settings: FIG. 9; anti-CD3 stimulated PBMCs, 72 hours
Description: On the day of initial treatment, cryopreserved peripheral blood mononuclear cells from a healthy donor (PBMCs; Astarte Biologics) were thawed in RPMI-1640 containing 10% fetal bovine serum, 1% penicillin-streptomycin and 25 mM HEPES buffer (complete medium) at 37° C. PBMCs were centrifuged two times at 1000 rpm to remove residual DMSO and debris and counted on a haemocytometer. Cells were used at a final cell density of 1×10^6 cells per mL in complete medium. […]
Following the 72 hour treatment, NK cells were assayed for lytic activity using the DELFIA cell cytoxicity assay from Perkin-Elmer according to manufacturer's instructions. […] K562 cells were resuspended in DMEM containing 10% fetal bovine serum and 1% penicillin-streptomycin, counted on a hemacytometer and diluted to 1×10^6 cells per mL. […] Europium solution (200 μL) was added to the supernatants and the plate was placed on a Wallac Victor microplate reader. Following a 15 minute orbital shake at high speed, the plate was read using time-resolved fluorescence (Excitation at 340 nm, Emission at 615 nm; delay 400 μsec; counting window 400 μsec, cycle 1000 μsec). […]

B cell growth = assay: Growth inhibition assay, inhibition with CMPD 31; assay type: cell-based; settings: FIG. 8; CMPD 31 at final concentration of 10 μM
Description: This protocol describes the technique to perform growth inhibition assays in 96-well format. This assay was used to calculate growth inhibition IC50 values of lenalidomide, pomalidomide, all derivatives and inhibition with CMPD31.
Cell lines Jurkat, NCI-H929, and JeKo-1 were obtained from ATCC and were maintained by vendor-specified media requirements. Cells were plated in 96-well plates at 3,750 cells per well (Jeko-1, HS-Sultan) or 5,000 cell per well (NCI-H929) in 90 μL of assay growth medium (RPMI-1640, 10% FBS, 1% pen-strep). Cells in plates were allowed to incubate at room temperature for one hour and then transferred to an incubator set at 37° C. and 5% CO2 humidified air overnight.
Compounds were serially diluted 3-fold in 100% DMSO into duplicate 10-point dose curves using a Biomek FX liquid handler in columns 2 through 11 of a 96-well U-bottom plate. Starting concentrations of compounds was 10 mM. Daughter plates containing 2 μL of the compound dose curves were stamped and stored at −80 C. […]
Compound and control daughter plates were diluted 100-fold in 200 μl of assay growth medium and then finally diluted 10-fold more into the 96-well cell plates; a final dilution of 1000-fold in 0.1% DMSO for all wells. […] Plates were incubated for 2 hours at 37° C. in 5% CO2 and then plates were read on a Perkin Elmer Victor^3 V plate reader with excitation at 560 nm and emission at 590 nm. […]

[2] = tested on: IL-2 production by Jurkat and PBMCs; assay: IL-2 production assay, inhibition with CMPD 31; assay type: cell-based, human; settings: FIG. 8; CMPD 31 at final concentration of 10 μM
Text: This protocol describes the technique to detect the amount of IL-2 produced by Jurkat and PBMCs in 96-well format. This assay was used to calculate IL-2 production EC50 values of lenalidomide, pomalidomide, all derivatives and inhibition with CMPD 31.
Logarithmically growing Jurkat cells from ATCC (clone E6-1) or frozen and thawed human PBMCs from Astarte (Peripheral Blood Mononuclear Cells, normal Donor 41) were resuspended at 1×10^6 cells/mL in RPMI-1640 medium containing 10% FBS and 1% antibiotic/antimycotic solution. Cells were plated into each well of a 96-well anti-CD3 plate (Becton Dickinson catalogue number #354725) at 1×10^5 cells/100 μl per well. […]
Compound daughter plates were resuspended in 200 μL of RPMI-1640 medium as a 10× stock and then 20 μL of the 10× stock was added to each anti-CD3 antibody assay plate well with a final volume of 200 μl by the addition of 80 μl of complete media. […] The amount of IL-2 produced was determined by an ELISA assay and was performed in one of two ways as per manufacturer instructions; by a standard ELISA (Enzyme-Linked Immunosorbent Assay) protocol method (Becton Dickinson) or an AlphaLISA protocol (Perkin Elmer). […]

T1 sequence (Q96S44 whole entry, other chains not shown): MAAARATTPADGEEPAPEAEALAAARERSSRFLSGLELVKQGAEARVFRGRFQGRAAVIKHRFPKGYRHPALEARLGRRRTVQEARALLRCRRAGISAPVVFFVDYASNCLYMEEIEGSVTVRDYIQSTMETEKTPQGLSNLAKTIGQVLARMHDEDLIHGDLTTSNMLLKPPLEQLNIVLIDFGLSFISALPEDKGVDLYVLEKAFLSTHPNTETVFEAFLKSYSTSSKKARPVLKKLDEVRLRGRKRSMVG

| Compound | compete for PRPK/TPRKB target binding to the pomalidomide-based affinity reagent (PRPK/TPRKB) | natural killer cell activation in PBMCs [1] | suppression of the activity of lenalidomide and pomalidomide in inhibition of B cell growth (B cell growth) | suppression of the activity of lenalidomide and pomalidomide in induction of IL-2 production [2] |
| --- | --- | --- | --- | --- |
| Nc1cccc2c1C(=O)N(C1CCC(=O)NC1=O)C2=O (stereo not shown) [pomalidomide] | compete | activation |  |  |
| Nc1cccc2c1C(=O)N([C@H]1CCC(=O)NC1)C2=O [CMPD 30, (S)-4-Amino-2-(6-oxopiperidin-3-yl)isoindoline-1,3-dione] | does not |  |  |  |
| O=C1CCC(N2C(=O)c3ccccc3C2=O)C(=O)N1 (stereo not shown) [thalidomide] | compete |  |  |  |
| Nc1ccc2c(c1)C(=O)N(C1CCC(=O)NC1=O)C2=O (stereo not shown) [CMPD 31] | compete |  | suppresses | suppresses |
| Nc1cccc2c1CN(C1CCC(=O)NC1=O)C2=O (stereo not shown) [lenalidomide] | compete | activation |  |  |
| CN1C(=O)CCC(N2C(=O)c3cccc(N)c3C2=O)C1=O (stereo not shown) [CMPD 29, 4-Amino-2-(1-methyl-2,6-dioxopiperidin-3-yl)isoindoline-1,3-dione] | compete |  |  |  |
